Measurements as given in patent publication US12077503B2, “Substituted cyclic amides and their use as herbicides” (FMC CORPORATION, priority 2015, dated 2024).

Legend:
Type in all cases: in vivo
[1] = test system: velvetleaf (Abutilon theophrasti); experiment: Test G Pre-Emergence Protocol; conditions: evaluated after 13 days
Procedure: (§1) Seeds of corn (Zea mays), giant foxtail (Setaria faberi), barnyardgrass (Echinochloa crus-galli), ivy-leaved morning glory (Ipomoea hederacea), redroot pigweed (Amaranthus retroflexus) and velvetleaf (Abutilon theophrasti) were sown in standard soil in pots. After cultivation for one day under controlled conditions in a glasshouse (at 24/16° C., day/night; 14 hours light; 65% humidity), the plants were sprayed with an aqueous spray solution derived from the formulation of the technical active ingredient in acetone/water (50:50) solution containing 0.5% Tween 20 (polyoxyethylene sorbitan monolaurate, CAS RN 9005-64-5) to give a final dose of 15.625, 62.5 or 250 g/ha of test compound.
(§2) The test plants were then grown on under controlled conditions in a glasshouse (at 24/16° C., day/night; 14 hours light; 65% humidity) and watered twice daily. After 13 days the test was evaluated (100=total damage to plant; 0=no damage to plant). A dash (-) means no test result.

[2] = test system: ivy-leaved morning glory (Ipomoea hederacea); experiment: Test G Pre-Emergence Protocol; conditions: evaluated after 13 days
Procedure: as §1, §2

corn (Zea mays) [3] = experiment: Test G Pre-Emergence Protocol; conditions: evaluated after 13 days
Procedure: as §1, §2

[4] = test system: redroot pigweed (Amaranthus retroflexus); experiment: Test G Pre-Emergence Protocol; conditions: evaluated after 13 days
Procedure: as §1, §2

[5] = test system: giant foxtail (Setaria faberi); experiment: Test G Pre-Emergence Protocol; conditions: evaluated after 13 days
Procedure: as §1, §2

[6] = test system: barnyardgrass (Echinochloa crus-galli); experiment: Test G Pre-Emergence Protocol; conditions: evaluated after 13 days
Procedure: as §1, §2

[7] = test system: velvetleaf (Abutilon theophrasti); experiment: Test G Post-Emergence Protocol
Procedure: as §1, with “8 days” for “one day”
as §2

[8] = test system: ivy-leaved morning glory (Ipomoea hederacea); experiment: Test G Post-Emergence Protocol
Procedure: as §1, with “8 days” for “one day”
as §2

corn (Zea mays) [9] = experiment: Test G Post-Emergence Protocol
Procedure: as §1, with “8 days” for “one day”
as §2

[10] = test system: redroot pigweed (Amaranthus retroflexus); experiment: Test G Post-Emergence Protocol
Procedure: as §1, with “8 days” for “one day”
as §2

[11] = test system: giant foxtail (Setaria faberi); experiment: Test G Post-Emergence Protocol
Procedure: as §1, with “8 days” for “one day”
as §2

[12] = test system: barnyardgrass (Echinochloa crus-galli); experiment: Test G Post-Emergence Protocol
Procedure: as §1, with “8 days” for “one day”
as §2

[13] = 62.5 g ai/ha, 100=total damage to plant, 0=no damage to plant
[14] = 15.625 g ai/ha, evaluated after 13 days (100=total damage to plant; 0=no damage to plant)
[15] = 62.5 g ai/ha, evaluated after 13 days
[16] = 250 g ai/ha, evaluated after 13 days
[17] = 62.5 g ai/ha, evaluated after 13 days, 100=total damage to plant, 0=no damage to plant
[18] = 250 g ai/ha, evaluated after 13 days, 100=total damage to plant, 0=no damage to plant

| Structure (SMILES) | Velvetleaf damage rating (100=total damage to plant; 0=no damage to plant) ([1]; 15.625 g ai/ha) | Velvetleaf damage rating (100=total damage to plant; 0=no damage to plant) ([1]; 250 g ai/ha) | Morningglory, Ivy-leaved damage rating (100=total damage to plant; 0=no damage to plant) ([2]; 250 g ai/ha) | Corn damage rating (100=total damage to plant; 0=no damage to plant) (corn (Zea mays) [3]; 15.625 g ai/ha) | Corn damage rating (100=total damage to plant; 0=no damage to plant) (corn (Zea mays) [3]; 250 g ai/ha) | Pigweed, Redroot damage rating (100=total damage to plant; 0=no damage to plant) ([4]; 15.625 g ai/ha) | Pigweed, Redroot damage rating (100=total damage to plant; 0=no damage to plant) ([4]; 250 g ai/ha) | Foxtail, Giant damage rating (100=total damage to plant; 0=no damage to plant) ([5]; 15.625 g ai/ha) | Foxtail, Giant damage rating (100=total damage to plant; 0=no damage to plant) ([5]; 250 g ai/ha) | Barnyardgrass damage rating (100=total damage to plant; 0=no damage to plant) ([6]; 15.625 g ai/ha) | Barnyardgrass damage rating (100=total damage to plant; 0=no damage to plant) ([6]; 250 g ai/ha) | Velvetleaf damage rating [7, 14] | Morningglory, Ivy-leaved damage rating [8, 14] | Corn damage rating (corn (Zea mays) [9]; [14]) | Pigweed, Redroot damage rating [10, 14] | Foxtail, Giant damage rating [11, 14] | Barnyardgrass damage rating [12, 14] | Velvetleaf damage rating [1, 13] | Morningglory, Ivy-leaved damage rating (100=total damage to plant; 0=no damage to plant) ([2]; 15.625 g ai/ha) | Morningglory, Ivy-leaved damage rating [2, 13] | also measured |
| --- | --- | --- | --- | --- | --- | --- | --- | --- | --- | --- | --- | --- | --- | --- | --- | --- | --- | --- | --- | --- | --- |
| Cc1ccc(NC(=O)C2C(=O)N(C)CC2c2ccc(C(F)(F)F)cc2)c([N+](=O)[O-])c1 (racemic) [Compound 1592] | 0 | 0 | 10 | 0 | 0 | 0 | 30 | 0 | 70 | 0 | 50 | 0 | 0 | 0 | 0 | 0 | 0 |  |  |  | plant damage rating, Velvetleaf [1, 13]: 0; Morning-glory, Ivy-leaved damage rating (100=total damage to plant; 0=no damage to plant) ([2]; 15.625 g ai/ha): 10; plant damage rating, Morningglory, Ivy-leaved [2, 13]: 0; plant damage rating, Corn (corn (Zea mays) [3]; [13]): 0; plant damage rating, Pigweed, Redroot [4, 13]: 0; plant damage rating, Foxtail, Giant [5, 13]: 20; plant damage rating, Barnyardgrass [6, 13]: 10; Velvetleaf damage rating (100=total damage to plant; 0=no damage to plant) [7, 15]: 10; damage to plant, Velvetleaf (100=total damage to plant; 0=no damage to plant) [7, 16]: 10; Morningglory, Ivy-leaved damage rating (100=total damage to plant; 0=no damage to plant) [8, 15]: 40; damage to plant, Morningglory, Ivy-leaved (100=total damage to plant; 0=no damage to plant) [8, 16]: 60; Corn damage rating (100=total damage to plant; 0=no damage to plant) (corn (Zea mays) [9]; [15]): 0; damage to plant, Corn (100=total damage to plant; 0=no damage to plant) (corn (Zea mays) [9]; [16]): 10; Pigweed, Redroot damage rating (100=total damage to plant; 0=no damage to plant) [10, 15]: 0; damage to plant, Pigweed, Redroot (100=total damage to plant; 0=no damage to plant) [10, 16]: 10; Foxtail, Giant damage rating (100=total damage to plant; 0=no damage to plant) [11, 15]: 60; damage to plant, Foxtail, Giant (100=total damage to plant; 0=no damage to plant) [11, 16]: 70; Barnyardgrass damage rating (100=total damage to plant; 0=no damage to plant) [12, 15]: 10; damage to plant, Barnyardgrass (100=total damage to plant; 0=no damage to plant) [12, 16]: 30 |
| CN1C[C@H](c2ccc(C(F)(F)F)cc2)[C@@H](C(=O)Nc2c[n+]([O-])ccc2C(F)(F)F)C1=O (racemic) [Compound 1732] | 0 | 10 | 0 | 0 | 0 | 0 | 10 | 0 | 50 | 0 | 0 | 0 | 0 | 0 | 0 | 0 | 0 | 0 | 0 | 0 | Corn damage rating (corn (Zea mays) [3]; [13]): 0; Pigweed, Redroot damage rating [4, 13]: 0; Foxtail, Giant damage rating [5, 13]: 20; Barnyardgrass damage rating [6, 13]: 0; Velvetleaf damage rating [7, 17]: 10; Velvetleaf damage rating [7, 18]: 0; Morningglory, Ivy-leaved damage rating [8, 17]: 0; Morningglory, Ivy-leaved damage rating [8, 18]: 0; Corn damage rating (corn (Zea mays) [9]; [17]): 0; Corn damage rating (corn (Zea mays) [9]; [18]): 0; Pigweed, Redroot damage rating [10, 17]: 10; Pigweed, Redroot damage rating [10, 18]: 20; Foxtail, Giant damage rating [11, 17]: 10; Foxtail, Giant damage rating [11, 18]: 50; Barnyardgrass damage rating [12, 17]: 0; Barnyardgrass damage rating [12, 18]: 20 |
| CN1C[C@@H](c2ccc(C(F)(F)F)cc2)[C@H](C(=O)Nc2cccnc2F)C1=O [Compound 1768] | 0 | 0 | 0 | 0 | 0 | 0 | 0 | 0 | 0 | 0 | 0 | 0 | 0 | 0 | 0 | 0 | 0 | 0 | 0 | 0 | Corn damage rating (corn (Zea mays) [3]; [13]): 0; Pigweed, Redroot damage rating [4, 13]: 0; Foxtail, Giant damage rating [5, 13]: 0; Barnyardgrass damage rating [6, 13]: 0; Velvetleaf damage rating [7, 17]: 0; Velvetleaf damage rating [7, 18]: 0; Morningglory, Ivy-leaved damage rating [8, 17]: 0; Morningglory, Ivy-leaved damage rating [8, 18]: 0; Corn damage rating (corn (Zea mays) [9]; [17]): 0; Corn damage rating (corn (Zea mays) [9]; [18]): 0; Pigweed, Redroot damage rating [10, 17]: 0; Pigweed, Redroot damage rating [10, 18]: 0; Foxtail, Giant damage rating [11, 17]: 0; Foxtail, Giant damage rating [11, 18]: 0; Barnyardgrass damage rating [12, 17]: 0; Barnyardgrass damage rating [12, 18]: 0 |
| CN1C[C@H](c2cccc(C(F)(F)F)c2)[C@@H](C(=O)Nc2cccc(F)n2)C1=O [Compound 1816] | 0 | 60 | 80 | 70 | 80 | 0 | 80 | 90 | 90 | 90 | 90 | 0 | 10 | 70 | 10 | 80 | 80 | 20 | 20 | 60 | Corn damage rating (corn (Zea mays) [3]; [13]): 80; Pigweed, Redroot damage rating [4, 13]: 40; Foxtail, Giant damage rating [5, 13]: 90; Barnyardgrass damage rating [6, 13]: 90; Velvetleaf damage rating [7, 17]: 30; Velvetleaf damage rating [7, 18]: 30; Morningglory, Ivy-leaved damage rating [8, 17]: 60; Morningglory, Ivy-leaved damage rating [8, 18]: 70; Corn damage rating (corn (Zea mays) [9]; [17]): 80; Corn damage rating (corn (Zea mays) [9]; [18]): 80; Pigweed, Redroot damage rating [10, 17]: 40; Pigweed, Redroot damage rating [10, 18]: 70; Foxtail, Giant damage rating [11, 17]: 80; Foxtail, Giant damage rating [11, 18]: 80; Barnyardgrass damage rating [12, 17]: 80; Barnyardgrass damage rating [12, 18]: 80 |
